How the values were obtained:
MOLM-13 cells = assay: In vitro cell assay, CellTiter-Glo cell viability, MOLM-13; assay type: cell-based; settings: 20,000 MOLM-13 cells, 72 h, CTG; 5 nM Compound 5A, 1,500 nM azacitidine, single agent or combination of both
Experimental: (§1) The cells were incubated with the indicated compound at the indicated concentration as described below. The combination indices (CI) were calculated using formula […]. A and B are the percent cell inhibition by single agent treatment, and AB is the percent cell inhibition by the combination.
(§2) For each cell line, the cell viability was assessed using a CellTiter-Glo® (CTG) assay.

HL-60 cells = assay: In vitro cell assay, CellTiter-Glo cell viability, HL-60; assay type: cell-based, human; settings: 10,000 HL-60 cells, 72 h, CTG; 150 nM Compound 5A, 5,000 nM azacitidine, single agent or combination of both
Experimental: as §1, §2

MV4-11 cells = assay: In vitro cell assay, CellTiter-Glo cell viability, MV4-11; assay type: cell-based; settings: 20,000 MV4-11 cells, 72 h, CTG; 25 nM Compound 5A, 2,272 nM azacitidine, single agent or combination of both
Experimental: as §1, §2

[1] = system: HL-60 cells (human myeloid leukemia cell line); assay: In vivo efficacy, HL-60 leukemia xenograft model (azacitidine combination, FIG. 5); settings: HL-60 s.c. xenograft in mice; Compound 5A 50 mg/kg p.o. qd×19; Azacitidine 2.5 mg/kg i.p. qd 5 days on 2 days off; alone or combined
Experimental: Mice were inoculated with HL-60 cells (human myeloid leukemia cell line) subcutaneously on the right flank with the single cell suspension of 95% viable tumor cells (1×10^7) in 100 μL IMDM Matrigel mixture (1:1 ratio) without serum for the tumor development. The treatment was started when the mean tumor size reached approximately 222 mm^3, with individual tumor size ranging from 185-245 mm^3. Animals were randomly distributed into treatment groups of 10 animals each and dosed with vehicle and indicated compounds at indicated dosage and frequency shown in FIG. 5 and Table 3. In FIG. 5, the top line (indicated with circles) is Vehicle control, the second from the top line (indicated with triangles) is Azacitidine (2.5 mg/kg 5 mL/kg i.p. qd (5 days on, 2 days off,)), the second from the bottom line (indicated with circles) is Compound 5A (50 mg/kg 10 mL/kg p.o. qd×19) and the bottom line (indicated with triangles) is Compound 5A (50 mg/kg p.o. qd×19)+Azacitidine (2.5 mg/kg i.p. qd 5×3 (5 days on 2 days off)). Tumor volumes were evaluated twice per week to calculate tumor volume over time, and mice were weighed twice per week as a surrogate for signs of toxicity. Tumor growth inhibition (TGI) was calculated using the following equation TGI=(1-(Td−T0)/(Cd−C0))×100%. […]

RS4;11 cells = assay: In vitro cell assay, CellTiter-Glo cell viability, RS4;11; assay type: cell-based; settings: 50,000 RS4;11 cells, 72 h, CTG; 5 nM Compound 5A, 1,500 nM azacitidine, single agent or combination of both
Experimental: as §1, §2

[2] = system: DOHH cells (non-Hodgkin's cell line); assay: In vivo efficacy, DOHH non-Hodgkin's model (bendamustine combination, FIG. 8); settings: DOHH s.c. xenograft in mice; Compound 5A 100 mg/kg p.o. qd×13; Bendamustine 25 mg/kg i.v. qd×1; alone or combined
Experimental: Tumor volumes were evaluated twice per week to calculate tumor volume over time, and mice were weighed twice per week as a surrogate for signs of toxicity. Tumor growth inhibition (TGI) was calculated using the following equation TGI=(1−(Td−T0)/(Cd−C0))×100%. Td and Cd are the mean tumor volumes of the treated and control animals, and T0 and C0 are the mean tumor volumes of the treated and control animals at the start of the experiment. The tumor regression was defined as individual tumor volume (TV) decrease (terminal TV compared to initial TV).

KMS-12-BM cells = assay: In vivo efficacy, KMS-12-BM model (bortezomib combination, FIG. 7); settings: KMS-12-BM s.c. xenograft in mice; Compound 5A 50 mg/kg p.o. qd×21; Bortezomib 0.5 mg/kg i.p. BIW; alone or combined
Experimental: Mice were inoculated with KMS-12-BM cells ([…]) subcutaneously on the right flank with the single cell suspension of 95% viable tumor cells (1×10^7) in 100 μL IMDM Matrigel mixture (1:1 ratio) without serum for the tumor development. The treatment was started when the mean tumor size reached approximately 222 mm^3, with individual tumor size ranging from 185-245 mm^3. Animals were randomly distributed into treatment groups of 10 animals each and dosed with vehicle and indicated compounds at indicated dosage and frequency shown in FIG. 7 and Table 3. In FIG. 7, the top line (indicated with diamonds) is Vehicle control, the second from the top line (indicated with squares) is Compound 5A (50 mg/kg), the second from the bottom line (indicated with “x”) is Bortezomib (0.5 mg/kg) and the bottom line ([…]). Tumor volumes were evaluated twice per week to calculate tumor volume over time, and mice were weighed twice per week as a surrogate for signs of toxicity. Tumor growth inhibition (TGI) was calculated using the following equation TGI=(1−(Td−T0)/(Cd−C0))×100%. Td and Cd are the mean tumor volumes of the treated and control animals, and T0 and C0 are the mean tumor volumes of the treated and control animals at the start of the experiment. The tumor regression was defined as individual tumor volume (TV) decrease (terminal TV compared to initial TV).

[3] = system: HL-60 cells (human myeloid leukemia cell line); assay: In vivo efficacy, HL-60 leukemia xenograft model (cytarabine combination, FIG. 6); settings: HL-60 s.c. xenograft in mice; Compound 5A 25 mg/kg p.o. qd×19; Cytarabine 5 mg/kg i.p. qd 5 days on 2 days off; alone or combined
Experimental: Mice were inoculated with HL-60 cells (human myeloid leukemia cell line) subcutaneously on the right flank with the single cell suspension of 95% viable tumor cells (1×10^7) in 100 μL IMDM Matrigel mixture (1:1 ratio) without serum for the tumor development. The treatment was started when the mean tumor size reached approximately 218 mm^3, with individual tumor size ranging from 185-245 mm^3. Animals were randomly distributed into treatment groups of 10 animals each and dosed with vehicle and indicated compounds at indicated dosage and frequency shown in FIG. 6 and Table 3. In FIG. 6, the top line (indicated with triangles) is Cytarabine (5.0 mg/kg), the second from the top line (indicated with circles) is Vehicle control, the second from the bottom line (indicated with diamonds) is Compound 5A (25 mg/kg) and the bottom line (indicated with circles) is Compound 5A (25 mg/kg p.o. qd×19)+Cytarabine (5 mg/kg i.p. qd 5×3 (5 days on 2 days off)). Tumor volumes were evaluated twice per week to calculate tumor volume over time, and mice were weighed twice per week as a surrogate for signs of toxicity. Tumor growth inhibition (TGI) was calculated using the following equation TGI=(1−(Td−T0)/(Cd−C0))×100%. Td and Cd are the mean tumor volumes of the treated and control animals, and TO and CO are the mean tumor volumes of the treated and control animals at the start of the experiment. […]

Nc1ncn([C@@H]2O[C@H](CO)[C@@H](O)[C@H]2O)c(=O)n1 [Azacitidine, azacitidine]
MOLM-13 % inhibition (MOLM-13 cells): 47.0%
HL60 % inhibition (HL-60 cells): 21.6%
MV4;11 % inhibition (MV4-11 cells): 82.9%
TGI % Day 18 [1]: 11%
RS4;11 % inhibition (RS4;11 cells): 32.5%

Cn1c(CCCC(=O)O)nc2cc(N(CCCl)CCCl)ccc21 [Bendamustine]
TGI % Day 26 [2]: 44%

CC(C)C[C@H](NC(=O)[C@H](Cc1ccccc1)NC(=O)c1cnccn1)B(O)O [Bortezomib, bortezomib]
TGI % Day 14 (KMS-12-BM cells): 46%

Nc1ccn([C@@H]2O[C@H](CO)[C@@H](O)[C@@H]2O)c(=O)n1 [Cytarabine]
TGI % Day 18 [3]: −6%

— patent US20230381172A1, “COMBINATIONS OF BCL-2 INHIBITORS WITH CHEMOTHERAPEUTIC AGENTS” (RECURIUM IP HOLDINGS, LLC, priority 2020, published 2023)
